{
  "source": "ChEMBL document CHEMBL1255345",
  "about": "“Efficacies of ceftobiprole medocaril and comparators in a rabbit model of osteomyelitis due to methicillin-resistant Staphylococcus aureus” (Antimicrob Agents Chemother, 2008)",
  "key": {"[1]": {"test_system": "Staphylococcus aureus", "assay": "(§1) Antimicrobial activity against methicillin-resistant Staphylococcus aureus infected in New Zealand rabbit osteomyelitis model assessed as bacterial count per gram of tibial matrix at 60 mg/kg, po administered every 8 hrs for 4 weeks measured on week 8 postinfection (reference value: 1.04 +/- 2.63 CFU/g)", "assay_type": "functional, organism-based", "design": "dose 60 mg/kg"}, "[2]": {"test_system": "Staphylococcus aureus", "assay": "Antimicrobial activity against methicillin-resistant Staphylococcus aureus infected in New Zealand rabbit osteomyelitis model assessed as improvement in rate of bone reconstruction at 60 mg/kg, po administered every 8 hrs for 4 weeks measured on week 8 postinfection radiographic analysis", "assay_type": "functional, organism-based", "design": "dose 60 mg/kg"}, "[3]": {"assay": "AUC in methicillin-resistant Staphylococcus aureus-infected New Zealand rabbit osteomyelitis model at 60 mg/kg, po after 24 hrs", "assay_type": "ADME, organism-based, Oryctolagus cuniculus", "design": "time < 24 hr, dose 60 mg/kg, route oral", "conditions": "in vivo"}, "[4]": {"test_system": "Staphylococcus aureus", "assay": "as §1, with “marrow” for “matrix”", "assay_type": "functional, organism-based", "design": "dose 60 mg/kg"}, "[5]": {"assay": "AUC in New Zealand rabbit osteomyelitis model at 40 mg/kg, sc administered every 6 hrs for 4 days", "assay_type": "ADME, organism-based, Oryctolagus cuniculus", "design": "dose 40 mg/kg, route subcutaneous", "conditions": "in vivo"}, "[6]": {"test_system": "Staphylococcus aureus", "assay": "Antimicrobial activity against methicillin-resistant Staphylococcus aureus infected in New Zealand rabbit osteomyelitis model assessed as improvement in rate of bone reconstruction at 60 mg/kg, po administered every 8 hrs for 4 weeks measured on week 6 postinfection radiographic analysis", "assay_type": "functional, organism-based", "design": "dose 60 mg/kg"}, "[7]": {"test_system": "Staphylococcus aureus", "assay": "Antimicrobial activity against methicillin-resistant Staphylococcus aureus infected in New Zealand rabbit osteomyelitis model assessed as improvement in extent of bone remodeling at 60 mg/kg, po administered every 8 hrs for 4 weeks measured on week 2 postinfection radiographic analysis", "assay_type": "functional, organism-based", "design": "dose 60 mg/kg"}, "[8]": {"test_system": "Oryctolagus cuniculus", "assay": "Toxicity in methicillin-resistant Staphylococcus aureus-infected New Zealand rabbit osteomyelitis model assessed as body weight at 60 mg/kg, po administered every 8 hrs for 4 weeks measured on week 8 postinfection (reference value: 2.43 +/- 0.15 kg)", "conditions": "in vivo"}, "[9]": {"test_system": "Oryctolagus cuniculus", "assay": "Toxicity in methicillin-resistant Staphylococcus aureus-infected New Zealand rabbit osteomyelitis model assessed as body weight at 60 mg/kg, po administered every 8 hrs for 4 weeks measured on week 2 postinfection (reference value: 2.43 +/- 0.15 kg)", "conditions": "in vivo"}, "[10]": {"test_system": "Staphylococcus aureus", "assay": "Antimicrobial activity against Staphylococcus aureus 168-1 isolated from osteomyelitis patient by broth macrodilution method", "assay_type": "functional"}, "[11]": {"test_system": "Staphylococcus aureus", "assay": "Antimicrobial activity against methicillin-resistant Staphylococcus aureus infected in New Zealand rabbit osteomyelitis model assessed as improvement in extent of bone remodeling at 60 mg/kg, po administered every 8 hrs for 4 weeks measured on week 6 postinfection radiographic analysis", "assay_type": "functional, organism-based", "design": "dose 60 mg/kg"}, "[12]": {"test_system": "Oryctolagus cuniculus", "assay": "Toxicity in methicillin-resistant Staphylococcus aureus-infected New Zealand rabbit osteomyelitis model assessed as body weight at 60 mg/kg, po administered every 8 hrs for 4 weeks measured on week 4 postinfection (reference value: 2.43 +/- 0.15 kg)", "conditions": "in vivo"}, "[13]": {"test_system": "Oryctolagus cuniculus", "assay": "Toxicity in methicillin-resistant Staphylococcus aureus-infected New Zealand rabbit osteomyelitis model assessed as body weight at 60 mg/kg, po administered every 8 hrs for 4 weeks measured on week 6 postinfection (reference value: 2.43 +/- 0.15 kg)", "conditions": "in vivo"}, "[14]": {"assay": "Cmax in New Zealand rabbit osteomyelitis model at 40 mg/kg, sc administered every 6 hrs for 4 days", "assay_type": "ADME, organism-based, Oryctolagus cuniculus", "design": "dose 40 mg/kg, route subcutaneous", "conditions": "in vivo"}, "[15]": {"test_system": "Staphylococcus aureus", "assay": "Antimicrobial activity against methicillin-resistant Staphylococcus aureus infected in New Zealand rabbit osteomyelitis model assessed as improvement in extent of bone remodeling at 60 mg/kg, po administered every 8 hrs for 4 weeks measured on week 8 postinfection radiographic analysis", "assay_type": "functional, organism-based", "design": "dose 60 mg/kg"}, "[16]": {"test_system": "Oryctolagus cuniculus", "assay": "Cmin in New Zealand rabbit at 20 mg/kg, sc administered every 6 hrs for 4 days measured after 1 hr post first dose by RP-HPLC/MS/MS", "assay_type": "ADME, organism-based", "design": "dose 20 mg/kg, route subcutaneous", "conditions": "in vivo, 1 h"}, "[17]": {"test_system": "Staphylococcus aureus", "assay": "as §1, with “at 30” for “at 60”, “mg/kg, sc” for “mg/kg, po”, “every 12” for “every 8”", "assay_type": "functional", "conditions": "route subcutaneous"}, "[18]": {"test_system": "Staphylococcus aureus", "assay": "Antimicrobial activity against methicillin-resistant Staphylococcus aureus infected in New Zealand rabbit osteomyelitis model assessed as improvement in extent of bone remodeling at 30 mg/kg, sc administered every 12 hrs for 4 weeks measured on week 6 postinfection radiographic analysis", "assay_type": "functional, organism-based", "design": "dose 30 mg/kg"}, "[19]": {"test_system": "Staphylococcus aureus", "assay": "Antimicrobial activity against methicillin-resistant Staphylococcus aureus infected in New Zealand rabbit osteomyelitis model assessed as improvement in extent of bone remodeling at 30 mg/kg, sc administered every 12 hrs for 4 weeks measured on week 2 postinfection radiographic analysis", "assay_type": "functional, organism-based", "design": "dose 30 mg/kg"}, "[20]": {"test_system": "Staphylococcus aureus", "assay": "Antimicrobial activity against methicillin-resistant Staphylococcus aureus infected in New Zealand rabbit osteomyelitis model assessed as improvement in rate of bone reconstruction at 30 mg/kg, sc administered every 12 hrs for 4 weeks measured on week 2 postinfection radiographic analysis", "assay_type": "functional, organism-based", "design": "dose 30 mg/kg"}, "[21]": {"test_system": "Staphylococcus aureus", "assay": "Antimicrobial activity against methicillin-resistant Staphylococcus aureus infected in New Zealand rabbit osteomyelitis model assessed as improvement in rate of bone reconstruction at 30 mg/kg, sc administered every 12 hrs for 4 weeks measured on week 6 postinfection radiographic analysis", "assay_type": "functional, organism-based", "design": "dose 30 mg/kg"}, "[22]": {"assay": "Ratio of AUC to MIC in methicillin-resistant Staphylococcus aureus infected New Zealand rabbit model osteomyelitis at 30 mg/kg, sc administered every 12 hrs for 4 weeks", "assay_type": "functional", "conditions": "route subcutaneous"}, "[23]": {"test_system": "Staphylococcus aureus", "assay": "Antimicrobial activity against methicillin-resistant Staphylococcus aureus infected in New Zealand rabbit osteomyelitis model assessed as bacterial count per gram of tibial marrow at 30 mg/kg, sc administered every 12 hrs for 4 weeks measured on week 8 postinfection (reference value: 1.12 +/- 10^9 CFU/g)", "assay_type": "functional", "conditions": "route subcutaneous"}, "[24]": {"test_system": "Staphylococcus aureus", "assay": "Antimicrobial activity against methicillin-resistant Staphylococcus aureus infected in New Zealand rabbit osteomyelitis model assessed as improvement in rate of bone reconstruction at 30 mg/kg, sc administered every 12 hrs for 4 weeks measured on week 8 postinfection radiographic analysis", "assay_type": "functional, organism-based", "design": "dose 30 mg/kg"}},
  "note": "Active and inactive are the calls of the source. No cut-off for these calls is given here.",
  "data": [
    {"compound": "CC(=O)NC[C@H]1CN(c2ccc(N3CCOCC3)c(F)c2)C(=O)O1", "note": "[LINEZOLID]", "values": [
      {"measurement": "Activity", "setting": "[1]", "value": "Active"},
      {"measurement": "Activity", "setting": "[2]", "value": "Active"},
      {"measurement": "AUC at 24 h", "setting": "[3]", "value": 334, "unit": "µg·h/mL"},
      {"measurement": "Activity", "setting": "[4]", "value": "Active"},
      {"measurement": "AUC", "setting": "[5]", "value": 173, "unit": "µg·h/mL"},
      {"measurement": "Activity", "setting": "[6]", "value": "Active"},
      {"measurement": "Activity", "setting": "[7]", "value": "Active"},
      {"measurement": "Activity", "setting": "[8]", "value": 2.42, "unit": "kg"},
      {"measurement": "Activity", "setting": "[9]", "value": 2.35, "unit": "kg"},
      {"measurement": "MBC", "setting": "[10]", "value": 12.5, "unit": "µg/mL"},
      {"measurement": "MIC", "setting": "[10]", "value": 1.56, "unit": "µg/mL"},
      {"measurement": "Activity", "setting": "[11]", "value": "Active"},
      {"measurement": "Activity", "setting": "[12]", "value": 2.44, "unit": "kg"},
      {"measurement": "Activity", "setting": "[13]", "value": 2.36, "unit": "kg"},
      {"measurement": "Cmax", "setting": "[14]", "value": 27200, "unit": "ng/mL"},
      {"measurement": "Activity", "setting": "[15]", "value": "Active"},
      {"measurement": "CFU", "setting": "[16]", "value": 0.18, "unit": "×10⁷ /g"}
    ]},
    {"compound": "CN[C@H](CC(C)C)C(=O)N[C@H]1C(=O)N[C@@H](CC(N)=O)C(=O)N[C@H]2C(=O)N[C@H]3C(=O)N[C@H](C(=O)N[C@H](C(=O)O)c4cc(O)cc(O)c4-c4cc3ccc4O)[C@H](O)c3ccc(c(Cl)c3)Oc3cc2cc(c3O[C@@H]2O[C@H](CO)[C@@H](O)[C@H](O)[C@H]2O[C@H]2C[C@](C)(N)[C@H](O)[C@H](C)O2)Oc2ccc(cc2Cl)[C@H]1O", "note": "[VANCOMYCIN]", "values": [
      {"measurement": "AUC", "setting": "[5]", "value": 58, "unit": "µg·h/mL"},
      {"measurement": "CFU", "setting": "[17]", "value": 0.84, "unit": "×10⁷ /g"},
      {"measurement": "Activity", "setting": "[18]", "value": "Active"},
      {"measurement": "Activity", "setting": "[19]", "value": "Active"},
      {"measurement": "MBC", "setting": "[10]", "value": 6.25, "unit": "µg/mL"},
      {"measurement": "MIC", "setting": "[10]", "value": 0.78, "unit": "µg/mL"},
      {"measurement": "Activity", "setting": "[20]", "value": "Active"},
      {"measurement": "Activity", "setting": "[21]", "value": "Active"},
      {"measurement": "RatioAUC/MIC", "setting": "[22]", "value": 148},
      {"measurement": "Cmax", "setting": "[14]", "value": 6400, "unit": "ng/mL"},
      {"measurement": "CFU", "setting": "[23]", "value": 0.64, "unit": "×10⁹ /g"},
      {"measurement": "Activity", "setting": "[24]", "value": "Active"}
    ]}
  ]
}
